Test results from paper PMC5017749, “Preclinical Metabolism, Pharmacokinetics and In Vivo Analysis of New Blood-Brain-Barrier Penetrant Fingolimod Analogues: FTY720-C2 and FTY720-Mitoxy” (PLoS ONE, 2016).

How the values were obtained:
[1] = Metabolic stability (intrinsic clearance) in monkey liver microsomes; assay type: in vitro ADME, monkey (Cynomolgus); conditions: for percent of the remaining compound: after 60 minute incubation
Procedure: (§1) Liver microsomal incubations contained 0.1mg/mL microsomal proteins and 1 μM of FTY720-C2 or FTY720-Mitoxy in 100 mM potassium phosphate buffer (pH 7.4) ± an NADPH regenerating system (3.5 mM glucose 6-phosphate, 1.3 mM NADP^+, and 0.4 units/mL glucose-6-phosphate dehydrogenase). Following incubations, reactions were terminated for analysis after 0, 10, 20, 30, and 60 min by the addition of acetonitrile containing C17 sphingosine (300 ng/mL) as the internal standard. Samples were vigorously mixed and centrifuged at 3,400 rpm for 10 min to pellet precipitated proteins. An aliquot of each supernatant was used for LC/MS analysis, for determination of the remaining FTY720-C2 and FTY720-Mitoxy. Similar incubations were performed using a cocktail solution containing 0.2 μM midazolam and 1 μM diclofenac to determine the metabolic activity of the microsomes as an additional control.
(§2) Samples resulting from liver microsomal incubations were analyzed by LC-MS/MS. Aliquots of the supernatants were injected onto an X-Bridge C18 column (2.1 × 50 mm, 3.5-μm particles) (Waters, Milford, MA), preceded by a SecurityGuard C18 guard column (4.0 × 2.0 mm; Phenomenex Inc.). Separations were accomplished with a gradient of 0.1% acetic acid in water (v/v) versus 0.1% acetic acid in acetonitrile: methanol (75:25, v/v) at a rate of 0.8 mL/min. The eluents were further applied into an equipped API 4000 QTrap mass spectrometer (AB Sciex, Foster City, CA) with electrospray ionization (ESI) interface by two coupled LC-10 AT pumps. Peak area ratios of FTY720-C2 or FTY720-Mitoxy against the C17 sphingosine internal standard were used to determine the amount of parent remaining compared to that at 0 min. The percent of FTY720-C2 or FTY720-Mitoxy remaining was calculated by dividing the peak area ratio obtained at each time point by that obtained at 0 min. The in vitro intrinsic clearance (CLint) was calculated by linear regression of the log percent of compound remaining versus time plots using Microsoft Excel, two independent experiments (n = 2) were performed for each compound and species. Then, the mean and standard deviation (SD), of two values for each condition, were calculated using Microsoft Excel with the “AVERAGE” and “STDEV” functions, respectively.

[2] = Metabolite profiling and identification in rat hepatocytes; assay type: in vitro ADME, rat (Sprague Dawley); design: key to Source (peak identified in rat hepatocytes): R = Rat; hr = Human; lowercase letter indicates low abundance; h: lowercase letter indicates low abundance; conditions: for phosphorylated metabolites / parent peak after 2 hr incubation: rat hepatocytes; for parent peak after 2 hr incubation: 1 μM
Procedure: (§3) Cryopreserved hepatocytes were grown in culture and incubations were performed to generate samples to measure the formation of FTY720-C2 and FTY720-Mitoxy metabolites. Incubations of 1 mL medium containing 1 million cells and 1 μM of FTY720-C2 and FTY720-Mitoxy were conducted at 37° C in a 5% CO2 incubator for 0, 1 and 2 hr, with gentle shaking. Positive control incubations used a cocktail solution containing 10 μM testosterone and 10 μM diclofenac performed for 0, 1 and 2 hr, under similar conditions to confirm the metabolic activity of the hepatocytes. The reactions were terminated by adding 2 mL acetonitrile containing 0.02% formic acid, and thoroughly mixing with gentle vortexing. Samples were transferred into 6 mL vials and stored in the freezer (-70°C) overnight for protein precipitation. Following overnight precipitations, samples were centrifuged at 3,000 rpm for 10 min to pellet proteins. Supernatants were transferred into clean 6 mL vials and evaporated to dryness using a TurboVap concentrator system. Samples were reconstituted using 600 μL 20% acetonitrile in water, briefly vortexed to resuspend, then aliquoted for LC-MS/MS analysis. Controls incubations also included “No drug control” and “no cell control” samples treated in a similar manner as test article samples.
(§4) Metabolite profiling and identification experiments were conducted by LC-MS/MS, composed of an HPLC system consisting of an Agilent Technologies 1200 Series Model G1322A Degasser, Agilent Technologies 1200 Series Model G1312A Binary Pump, Shimadzu HTc autosampler, and Valco Model E60 Flow Diversion Valve, and coupled to an API 4000 mass spectrometer. Separations were accomplished on a Gemini C18 column (150 × 2.0 mm, 5-μm particles; Phenomenex Inc., Torrance, CA), preceded by a SecurityGuard C18 guard column (4.0 × 2.0 mm; Phenomenex Inc.). A two-component mobile phase, consisted of a linear gradient of water containing 0.5% formic acid (v/v) and methanol:acetonitrile (1:1, v/v) containing 0.5% formic acid (v/v), was pumped at 0.3 mL/min. The first 4 min of flow was diverted away from the mass spectrometer. Analysis of the positive control samples was conducted with an HPLC system consisting of two Shimadzu LC-10ATvp pumps and a LEAP Pal autosampler. Separations were accomplished on a Luna C8(2) column (50 × 2.0 mm, 3-μm particles; Phenomenex Inc., Torrance, CA), preceded by a SecurityGuard C18 column (4.0 × 2.0 mm; Phenomenex Inc.). Separation was accomplished with a gradient of water containing 0.2% formic acid and 0.012% NH4OH (v/v) versus acetonitrile at an initial rate of 0.7 mL/min. An API 4000 QTrap mass spectrometer (AB Sciex, Foster City, CA) was used for analysis of positive control samples. Each mass spectrometer used was equipped with an electrospray ionization source and operated in the positive ionization mode. Metabolite identification experiments were performed by recording full scan mass spectral data (Q1MS) for all samples, and selected samples were analyzed to obtain product ion spectra (MS/MS) of test article metabolites identified in the full scan mass spectral data.

[3] = Metabolic stability (intrinsic clearance) in rat liver microsomes; assay type: in vitro ADME, rat (Sprague-Dawley); conditions: for microsomal CLint at 1 μM: Sprague-Dawley, pH 7.4, 0.1 mg/mL protein, mean of two determinations; for microsomal CLint at 1 μM / intrinsic clearance interpreted in words / percent of the remaining compound: rat liver microsomes; for percent of the remaining compound: after 60 minute incubation; for Clint in rat liver microsomes relative to human liver microsomes: rat vs human liver microsomes
Procedure: as §1, §2

[4] = Metabolic stability (intrinsic clearance) in mouse liver microsomes; assay type: in vitro ADME, mouse (CD-1); conditions: for percent of the remaining compound: after 60 minute incubation
Procedure: as §1, §2

[5] = Metabolic stability (intrinsic clearance) in dog liver microsomes; assay type: in vitro ADME, dog (Beagle); conditions: for microsomal CLint at 1 μM: Beagle; for percent of the remaining compound: after 60 minute incubation
Procedure: as §1, §2

[6] = Metabolite profiling and identification in human hepatocytes; assay type: in vitro ADME; design: key to Source (peak identified in human hepatocytes): R = Rat; hr = Human; lowercase letter indicates low abundance; h: lowercase letter indicates low abundance; conditions: for phosphorylated metabolites / parent peak after 2 hr incubation: human hepatocytes; for parent peak after 2 hr incubation: 1 μM
Procedure: as §3, §4

[7] = FTY720-Mitoxy incubation, Table 5

Structure (SMILES)	intrinsic clearance interpreted in words ([1]; monkey liver microsomes)	percent of the remaining compound ([1]; monkey liver microsomes)	phosphorylated metabolites [2]	parent peak after 2 hr incubation [2]	microsomal CLint at 1 μM [3]	intrinsic clearance interpreted in words [3]	percent of the remaining compound [3]	Clint in rat liver microsomes relative to human liver microsomes [3]	intrinsic clearance interpreted in words ([4]; mouse liver microsomes)	percent of the remaining compound ([4]; mouse liver microsomes)	intrinsic clearance interpreted in words ([5]; dog liver microsomes)	percent of the remaining compound ([5]; dog liver microsomes)	phosphorylated metabolites [6]	parent peak after 2 hr incubation [6]	further results
CCCCCCCCc1ccc(CCC(CO)(CO)NC(C)=O)cc1 [FTY720-C2, N-(1-hydroxy-2-(hydroxymethyl)-4-(4-octylphenyl)butan-2-yl)acetamide]	moderate	30.0 ± 0.3%	never detected	drastically diminished	79.5 ± 1.41 µL/min/mg	high	1.0 ± 0%	~ 4 fold	moderate	29.5 ± 2.1%	low	69.9 ± 0.6%	never detected	more gradual	microsomal CLint at 1 μM ([1]; pH 7.4, monkey liver microsomes, 0.1 mg/mL protein, 1 μM, mean of two determinations): 20.2 µL/min/mg; Source (peak identified in rat hepatocytes) ([2]; FTY720-C2 incubation, Table 4): R; microsomal CLint at 1 μM ([4]; CD-1, pH 7.4, mouse liver microsomes, 0.1 mg/mL protein, 1 μM, mean of two determinations): 22.5 ± 2.12 µL/min/mg; microsomal CLint at 1 μM ([5]; pH 7.4, dog liver microsomes, 0.1 mg/mL protein, 1 μM, mean of two determinations): 6 ± 0.28 µL/min/mg; Source (peak identified in human hepatocytes) ([6]; FTY720-C2 incubation, Table 4): H
CCCCCCCCc1ccc(CCC(CO)(CO)NC(=O)CC[P+](c2ccccc2)(c2ccccc2)c2ccccc2)cc1 [FTY720-Mitoxy, N-(1-hydroxy-2-(hydroxymethyl)-4-(4-octylphenyl)butan-2-yl)-3’-triphenylphosphoniumpropanamide]	high	1.4 ± 0.3%	never detected	most FTY720-Mitoxy was still unchanged	7.8 ± 1.98 µL/min/mg	low	65.5 ± 4.9%	around half	low	82.5 ± 16.3%	low	112.5 ± 5.0%	never detected	most FTY720-Mitoxy was still unchanged	Clint (intrinsic clearance) ([1]; monkey liver microsomes, 0.1 mg/mL protein, 1 μM, mean of two determinations): 135.3 ± 10.61 µL/min/mg; microsomal CLint at 1 μM ([1]; monkey, liver microsomes, pH 7.4, monkey liver microsomes, 0.1 mg/mL protein, 1 μM, mean of two determinations): 135 µL/min/mg; Source (peak identified in rat hepatocytes) [2, 7]: R; microsomal CLint at 1 μM ([4]; CD-1, mouse, liver microsomes, pH 7.4, mouse liver microsomes, 0.1 mg/mL protein, 1 μM, mean of two determinations): 1.8 µL/min/mg; Clint (intrinsic clearance) ([4]; mouse liver microsomes, 0.1 mg/mL protein, 1 μM, mean of two determinations): 1.75 ± 1.34 µL/min/mg; microsomal CLint at 1 μM ([5]; dog, liver microsomes, pH 7.4, dog liver microsomes, 0.1 mg/mL protein, 1 μM, mean of two determinations): 1.4 µL/min/mg; Clint (intrinsic clearance) ([5]; dog liver microsomes, 0.1 mg/mL protein, 1 μM, mean of two determinations): 1.35 ± 1.48 µL/min/mg; Source (peak identified in human hepatocytes) [6, 7]: H
